Where two headings read alike, the source gives them in different places.
Assays:
[1] = Determination of log P values by HPLC on reversed-phase column (formic acid method); assay type: physicochemical
Protocol: 1) Description of Method for Determining the Log P Values (Formic Acid Method)
The log P values reported in the table were determined according to EEC-Directive 79/831 Annex V.A8 by HPLC (High Performance Liquid Chromatography) on a reversed-phase column (C 18). […]
Eluent A: acetonitrile+1 ml of formic acid/liter. Eluent B: water+0.9 ml of formic acid/liter.
Gradient: from 10% eluent A/90% eluent B to 95% eluent A/5% eluent B in 4.25 min
The calibration was effected with unbranched alkan-2-ones (with 3 to 16 carbon atoms), whose log P values are known (determination of the log P values on the basis of the retention times by linear interpolation between two successive alkanones). The lambda-max values were determined with reference to the UV spectra from 200 nm to 400 nm in the maxima of the chromatographic signals.

[2] = system: green peach aphid (Myzus persicae); test: Myzus test; assay type: in vivo; settings: read-out: efficacy (aphids killed)
Protocol: • Solvent: 78.0 parts by weight of acetone • 1.5 parts by weight of dimethylformamide • Emulsifier: 0.5 part by weight of alkylaryl polyglycol ether
To produce an appropriate active ingredient formulation, 1 part by weight of active ingredient is mixed with the amounts of solvent and emulsifier specified and the concentrate is diluted to the desired concentration with emulsifier-containing water.
Chinese cabbage leaf slices (Brassica pekinensis) infested by all stages of the green peach aphid (Myzus persicae) are sprayed with an active ingredient formulation of the desired concentration.
After the desired time, the efficacy in % is determined 100% means that all aphids have been killed; 0% means that no aphids have been killed.

[3] = reversed-phase HPLC column (C 18), pH 3.4, HPLC, reversed-phase C 18, acidic range (pH 3.4), formic acid eluents, 55° C., read-out: logP (HCOOH)
[4] = application rate 500 g/ha, spray on Chinese cabbage leaf slices

Structure (SMILES)	chromatographic logP [1, 3]	pest or weed control at 500 g/ha [2, 4] [%]	chromatographic logP ([1]; pH 7.5, pH=7.5, read-out: log P (pH=7.5))	pest or weed control at 500 g/ha ([2]; in Brassica rapa) [%]	chromatographic logP ([1]; HPLC, reversed-phase C 18, acidic range (pH 3.4), formic acid eluents, 55° C., read-out: logP (HCOOH))
Cn1nc(-c2cccnc2)cc1C(=O)NCC(F)(F)F [Compound 31]	1.04	≥ 70			
Cc1nc(-c2cccnc2)sc1C(=O)NCC1COCCO1 (stereo not drawn) [Compound 50]	0.8	≥ 70			
Cc1nc(-c2cccnc2)sc1C(=O)N(C)CC(=O)N(C)C [Compound 133]	0.8	≥ 70			
Cc1nc(-c2cccnc2)sc1C(=O)NCC(F)(F)Br [Compound 121]	1.98	≥ 70			
Cc1nc(-c2cccnc2)sc1C(=O)NCCC#N [Compound 150]	1.19	≥ 70			
CNC(=O)c1cnc(-c2cccnc2)s1 [Compound 59]	0.62	≥ 70			
COCN(C(=O)c1sc(-c2cccnc2)nc1C)C(C)C(=O)OC (stereo not drawn) [Compound 109]	1.61	≥ 70			
Cc1nc(-c2cccnc2)sc1C(=O)NC1(C(F)(F)F)CC1 [Compound 34]	1.84	≥ 70			
CCc1nccc(CNC(=O)c2cnc(-c3cccnc3)s2)n1 [Compound 176]	1.19	≥ 70			
Cc1nc(-c2cccnc2)sc1C(=O)NC(C)c1nn(C)c(=O)n1C (stereo not drawn) [Compound 151]	1.01	≥ 70			
CN(Cc1cccnc1)C(=O)c1cnc(-c2cccnc2)s1 [Compound 127]	0.98	≥ 70			
Cc1nc(-c2cccnc2)sc1C(=O)NC(C)C1CCCO1 (stereo not drawn) [Compound 195]	1.5	≥ 70			
Cc1nc(-c2cncnc2)sc1C(=O)N(C)CC(F)(F)F [Compound 21]	1.72	≥ 70			
Cc1nc(-c2cccnc2)sc1C(=O)N(C)CC(C)(F)F [Compound 35]	1.65	≥ 70			
Cc1nc(-c2cccnc2)sc1C(=O)NCc1ccccn1 [Compound 90]	0.78	≥ 70			
Cc1nc(-c2cncc(F)c2)sc1C(=O)NCC(F)(F)F [Compound 9]	2.15	≥ 70			
Cc1nc(-c2cccnc2)sc1C(=O)NCC1COC(C)(C)O1 (stereo not drawn) [Compound 155]	1.48	≥ 70			
Cc1nccc(CNC(=O)c2cnc(-c3cccnc3)s2)n1 [Compound 74]	0.94	≥ 70			
CN(C)C(=O)c1cnc(-c2cccnc2)s1 [Compound 46]	0.91	≥ 70			
Cc1nc(-c2cncc(Br)c2)sc1C(=O)NCC(F)(F)F [Compound 16]	2.61	≥ 70			
Cc1nc(-c2cccnc2)sc1C(=O)N(C)CC1CC1 [Compound 170]	1.68	≥ 70			

Structure (SMILES)	chromatographic logP [1, 3]	pest or weed control at 500 g/ha [2, 4] [%]	chromatographic logP ([1]; pH 7.5, pH=7.5, read-out: log P (pH=7.5))	pest or weed control at 500 g/ha ([2]; in Brassica rapa) [%]	chromatographic logP ([1]; HPLC, reversed-phase C 18, acidic range (pH 3.4), formic acid eluents, 55° C., read-out: logP (HCOOH))
Cc1nc(-c2cccnc2)sc1C(=O)N(CC#N)C(C)C [Compound 142]	1.56	≥ 70			
O=C(NCc1ncccn1)c1nnc(-c2cccnc2)s1 [Preparation Example 7]	0.85	≥ 70	0.85		
Cc1nc(-c2cccnc2)sc1C(=O)NCC(C)F (stereo not drawn) [Compound 75]	1.34	≥ 70			
Cc1nc(-c2cccnc2)sc1C(=O)NCCF [Compound 53]	1.11	≥ 70			
COCN(Cc1cc(C)on1)C(=O)c1sc(-c2cccnc2)nc1C [Compound 119]	1.71	≥ 70			
COCN(CCF)C(=O)c1sc(-c2cccnc2)nc1C [Compound 113]	1.46	≥ 70			
CCOC1(NC(=O)c2sc(-c3cccnc3)nc2C)CC1 [Compound 144]	1.45	≥ 70			
Cc1nc(-c2cccnc2)sc1C(=O)NCC(F)(Cl)Cl [Compound 96]	1.98	≥ 70			
Cc1nc(-c2cccnc2)sc1C(=O)N(C)CC(F)(F)C(F)F [Compound 43]	1.69	≥ 70			
Cn1nc(-c2cccnc2)cc1C(=O)NCc1ncccn1 [Compound 28]	0.25	≥ 70			
O=C(NC(C(F)(F)F)C(F)(F)F)c1cnc(-c2cccnc2)s1 [Compound 171]	2.3	≥ 70			
Cn1nc(-c2cncc(F)c2)cc1C(=O)NCC(C)(F)F [Compound 12]	1.89	≥ 70			
NC(=O)c1cnc(-c2cccnc2)s1 [Compound 72]	0.29	≥ 70			
O=C(NCC(F)(F)F)c1nnc(-c2cccnc2)s1 [Compound 32]	1.53	≥ 70			
CN(CC(F)(F)F)C(=O)c1cnc(-c2cccnc2)s1 [Compound 192]	1.59	≥ 70			
Cc1nc(-c2cccnc2)sc1C(=O)NCC(F)(F)Cl [Preparation Example 1, N-(2-chloro-2,2-difluoroethyl)-4-methyl-2-pyridin-3-ylthiazole-5-carboxamide]	1.84			≥ 70	
Cc1nc(-c2cccnc2)sc1C(=O)NN1CCCC1 [Compound 201]	1.37	≥ 70			
CSC[C@H](C)NC(=O)c1cnc(-c2cccnc2)s1 [Compound 191]	1.53	≥ 70			
Cc1cc(C)nc(CNC(=O)c2cnc(-c3cccnc3)s2)n1 [Preparation Example 3]	1.19			≥ 70	
Cc1nc(C)n(C(C)CNC(=O)c2sc(-c3cccnc3)nc2C)n1 (stereo not drawn) [Compound 165]	1.06	≥ 70			
Cc1nc(-c2cccnc2)sc1C(=O)NCC(F)(F)C(F)(F)F [Compound 189]	2.13	≥ 70			

Structure (SMILES)	chromatographic logP [1, 3]	pest or weed control at 500 g/ha [2, 4] [%]	chromatographic logP ([1]; pH 7.5, pH=7.5, read-out: log P (pH=7.5))	pest or weed control at 500 g/ha ([2]; in Brassica rapa) [%]	chromatographic logP ([1]; HPLC, reversed-phase C 18, acidic range (pH 3.4), formic acid eluents, 55° C., read-out: logP (HCOOH))
Cc1nc(-c2cccnc2)sc1C(=O)NCC(F)(F)C(F)F [Compound 82]	1.75	≥ 70			
Cc1nc(-c2cccnc2)sc1C(=O)NC(C)(C)C(F)(F)F [Compound 182]	2.24	≥ 70			
C#CC(C)ONC(=O)c1sc(-c2cccnc2)nc1C (stereo not drawn) [Compound 158]	1.48	≥ 70			
COCN(CC1COCCO1)C(=O)c1sc(-c2cccnc2)nc1C (stereo not drawn) [Compound 188]	1.45	≥ 70			
Cn1nc(-c2cccnc2)cc1C(=O)NCC(C)(F)F [Compound 24]	0.91	≥ 70			
C#CC(C)(C)NC(=O)c1sc(-c2cccnc2)nc1C [Compound 156]	1.66	≥ 70			
Cc1nc(-c2cccnc2)sc1C(=O)NCc1cccnc1 [Compound 135]	0.46	≥ 70			
Cc1nc(-c2cccnc2)sc1C(=O)NCC(Cl)(Cl)Cl [Compound 100]	2.17	≥ 70			
CSC[C@H](C)NC(=O)c1sc(-c2cccnc2)nc1C [Compound 56]	1.68	≥ 70			
O=C(NCc1cccc(Br)n1)c1cnc(-c2cccnc2)s1 [Compound 179]	1.68	≥ 70			
Cc1nc(-c2cccnc2)sc1C(=O)NCc1ccon1 [Compound 60]	1.14	≥ 70			
O=C(N[C@H]1C[C@@H]1F)c1cnc(-c2cccnc2)s1 [Compound 118]	1.14	≥ 70			
Cc1nc(-c2cccnc2)sc1C(=O)NCC1CCCCC1 [Compound 153]	2.43	≥ 70			
Cc1nc(-c2cccnc2)sc1C(=O)NCC(F)F [Compound 57]	1.34	≥ 70			
CCCC(NC(=O)c1sc(-c2cccnc2)nc1C)C(F)(F)F (stereo not drawn) [Compound 181]	2.58	≥ 70			
CN(Cc1ccccn1)C(=O)c1cnc(-c2cccnc2)s1 [Compound 134]	0.41	≥ 70			
CCOC(=O)N(C)NC(=O)c1sc(-c2cccnc2)nc1C [Compound 197]		≥ 70			1.48
COC(C)(CNC(=O)c1sc(-c2cccnc2)nc1C)OC [Compound 174]	1.44	≥ 70			
Cc1nc(-c2cccnc2)sc1C(=O)NN1CCOC1=O [Compound 204]	1.11	≥ 70			

Reference: patent US9428487B2, “Heteroaromatic amides and thioamides as pesticides” (Bayer Intellectual Property GmbH, priority 2008, dated 2016)
